In the assay the test system is SD rats. The experiment in a line: Effect of leptin fragments given intracerebroventricularly on food intake and body weight in SD rats. Type of assay: in vivo. Particulars: single icv injection, measured 24 h later, n = 8, * P < 0.05. The method, then:
Effect of Leptin Fragments on Food Intake in SD Rats
Rats are pre-treated with Synulox (0.1 ml/100 g) approx 1 hour before anaesthesia, and then anaesthetised with Domitor (0.04 ml/100 g i.m.) and sublimase (0.9 ml/100 g i.p.) Each rat has a cannula implanted stereotaxically into the lateral brain ventricle under sterile conditions. Anaesthesia is then reversed using Antisedan and Nubain (50% v/v :50% v/v 0.02 m1/100 g) I.P. After surgery each rat receives 0.05 ml Zenecarp.
Experiment 1: Following surgery the body weight of each animal was monitored daily throughout the procedure.
In order to verify that the cannula was in the lateral ventricle, Angiotensin II (100 ng/5 μl ) was injected icv and water intake was monitored for 5 min after injection.
24 hour food intake was measured on day 5 and 6 after surgery. On day 6 the animals were divided according to their body weight into 3 groups (a,b and c, 8 rats per group) and then fasted overnight. On the day of experiment (day 7) rats were injected icv as follows::
group a-vehicle (PBS, phosphate buffer solution, 5 μl/rat);
group b-human leptin (11.5 μg/5 μl); and
group c-leptin tryptic digest (30 μg/5 μl).
A known quantity of food in excess of the daily requirement was supplied to the rats immediately after the icv injection procedure was completed. Food intake and body weight were then measured 24h later.
Experiment 2: A separate group of animals was prepared exactly as described above but on the day of experiment after overnight fast, groups of rats were injected as follows:
group a-vehicle (PBS 5 μl /rat);
group b-human leptin ([…]);
group c-murine leptin (10 μg/5 μl);
group d-ob 57-74, sequence VTGLDFIPGLHPILTLSK (3.33 μg/5 μl);
Again a pre-weight quantity of food, in excess of the daily requirement, was re-given following the injection; change in body weight and the quantity of food consumed were recorded 24h later.

The mark [1] stands for this setting: Experiment 2, Table 2, overnight fast, h-leptin 8.75 μg/rat, m-leptin 10 μg/rat, fragment 57-74 3.33 μg/rat.
Where [2] appears, read: Experiment 1, Table 1, overnight fast, h-leptin 11.5 μg/rat, tryptic digest 30 μg/rat.

For “VTGLDFIPGLHPILTLSK [Leptin fragment 57-74, fragment of human ob protein, amino acid residues 57 to 74]”, under setting [1], the “24 h food intake” value stood at 33.6 ± 0.9 g and the “Bwt Change” value is 26.8 ± 1.2* g/24 h.
On to “h-Leptin: human leptin (human ob protein)”, for which the “24 h food intake” value under setting [2] was 30.62 ± 1.5* g and the “24 h food intake” value under setting [1] amounted to 33.7 ± 1.6 g. Moreover, the “Bwt Change” value reads like this: under setting [2], 22.88 ± 2.05* g/24 h; under setting [1], 24.5 ± 3.7 g/24 h.

B1: m-Leptin: murine leptin (protein, UniProt P41160 22-167, looked up)
Leptin: VPIQKVQDDTKTLIKTIVTRINDISHTQSVSAKQRVTGLDFIPGLHPILSLSKMDQTLAVYQQVLTSLPSQNVLQIANDLENLRDLLHLLAFSKSCSLPQTSGLQKPESLDGVLEASLYSTEVVALSRLQGSLQDILQQLDVSPEC
On to B1, for which, under setting [1], the “24 h food intake” value is recorded as 31.3 ± 1.7 g and the “Bwt Change” value is on record as 23.7 ± 2.18* g/24 h.
